pIC50: −log10 of the molar value.
target: T1, His-EBNA1 (DNA binding domain of EBNA1, amino acids 459-607) (Epstein-Barr virus, UniProt P03211); assay: Inhibition of 5'-biotin-oPL4624 binding to His-EBNA1 using Alpha Screen technology
T1 construct: made in house; host or cells: E. coli
Experimental: Inhibition of 5′-Biotin-oPL4624 Binding to his-EBNA1 Using Alpha Screen Technology
Assays were performed using the DNA binding domain of EBNA1 (amino acids 459-607), which was His-tagged (His-EBNA1) and the self-complementary biotinylated (bt) oligonucleotide with the sequence 5′-bt-[…]-ATGCTACCC-3′ (bt-oPL4624; or 5′-bt-SEQ ID NO: 1). The protein was expressed in E. coli and purified according to Barwell, et al., 1995, J Biol Chem. 270:20556-9.). The bt-oPL4624 oligonucleotide was purchased from Integrated DNA Technologies, Inc (IDT). AlphaScreen donor, acceptor beads and white, opaque 384-well assay plates were purchased from PerkinElmer, Inc.
Assays contained 15 nM His-EBNA1, 0.2 nM bt-oPL4624, 5 μg/mL AlphaScreen streptavidin donor beads and nickel chelate acceptor beads, and a series of concentrations of test compound ranging from 3.2 nM to 100 μM in a total volume of 40 μL assay buffer (25 mM Tris, pH 7.2, 160 mM NaCl, 1 mM MgCl2). His-EBNA1 (30 nM) and bt-oPL4624 (0.4 nM) were preincubated with 10 μg/mL nickel chelate AlphaScreen acceptor bead, or 10 μg/mL streptavidin AlphaScreen donor bead, respectively, for 30 minutes at room temperature in assay buffer. Twenty microliters of His-EBNA1/acceptor bead mix and bt-oPL4624/donor bead mix were transferred to assay plates containing 0.4 μL of 1:3 serial dilutions of test compounds previously prepared in DMSO at concentrations ranging from 0.32 μM to 10 mM. Non-specific binding was determined with 5 μg/mL AlphaScreen acceptor bead in the absence of His-EBNA1. After 2 hr incubation at room temperature, the AlphaScreen signal was measured on the Envision plate reader (PerkinElmer, Inc.) at 680 nm excitation and 570 nm emission. Inhibition values at each concentration of test compound were determined by setting 100% equal to raw data values in the absence of EBNA1 and 0% equal to the raw data values in the presence of EBNA1. Nonlinear regression fits of the inhibition values to a one-site dose-response equation were performed using GraphPad Prism.

T1 sequence (P03211 459-607): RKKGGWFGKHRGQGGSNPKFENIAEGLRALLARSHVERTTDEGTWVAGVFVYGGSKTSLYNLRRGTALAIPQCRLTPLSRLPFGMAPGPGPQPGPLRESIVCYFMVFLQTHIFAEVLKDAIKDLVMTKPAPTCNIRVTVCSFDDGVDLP

Structure (SMILES)	pIC50
O=C(O)c1cccc(C#Cc2ccc(C(=O)N3CCOCC3)c(O)c2)c1-c1ccc2cc[nH]c2c1 [Entry 46]	4.00 to 5.00
O=C(O)c1cccc(C#Cc2ccc(F)cc2)c1-c1cnc2[nH]ccc2c1 [Entry 140]	4.00 to 5.00
CCC(=O)N1CCc2ccc(C#Cc3cccc(C(=O)O)c3-c3ccc4cc[nH]c4c3)cc2C1 [Entry 75]	4.00 to 5.00
COCCN(C)Cc1ccc(C#Cc2cccc(C(=O)O)c2-c2ccc3cc[nH]c3c2)cc1 [Entry 157]	4.00 to 5.00
C(#Cc1cccc(-c2nnn[nH]2)c1-c1ccc2cc[nH]c2c1)c1ccc(COC2CCOCC2)cc1 [Entry 196]	5.00 to 6.00
O=C(O)c1cccc(C#Cc2cc3ccn(CC4CCS(=O)(=O)CC4)c3cc2F)c1-c1ccc2cc[nH]c2c1 [Entry 38]	5.00 to 6.00
Nc1nc2c(s1)C[C@@H](NCc1ccc(C#Cc3cccc(C(=O)O)c3-c3ccc4cc[nH]c4c3)cc1)CC2 [Entry 174]	5.00 to 6.00
CS(=O)(=O)c1cccc(OCc2ccc(C#Cc3cccc(C(=O)O)c3-c3ccc4cc[nH]c4c3)cc2)c1 [Entry 98]	5.00 to 6.00
CCCNC(=O)c1cc2ccc(C#Cc3cccc(C(=O)O)c3-c3ccc4cc[nH]c4c3)cc2[nH]1 [Entry 101]	5.00 to 6.00
COC1CCN(Cc2ccc(C#Cc3cccc(C(=O)O)c3-c3ccc4cc[nH]c4c3)cc2)CC1 [Entry 155]	4.00 to 5.00
O=C(NCc1ccc(C#Cc2cccc(C(=O)O)c2-c2ccc3cc[nH]c3c2)cc1)c1ccccc1 [Entry 197]	5.00 to 6.00
CS(=O)(=O)NC(=O)c1cccc(C#Cc2ccc(COC3CCOCC3)cc2)c1-c1ccc2cc[nH]c2c1 [Entry 195]	4.00 to 5.00
CN1CCCN(Cc2ccc(C#Cc3cccc(C(=O)O)c3-c3ccc4cc[nH]c4c3)cc2)CC1 [Entry 152]	5.00 to 6.00
CC(C)N1CCN(Cc2ccc(C#Cc3cccc(C(=O)O)c3-c3ccc4cc[nH]c4c3)cc2)CC1 [Entry 164]	4.00 to 5.00
O=C(O)c1cccc(C#Cc2ccccc2)c1-c1ccc2ncsc2c1 [Entry 110]	4.00 to 5.00
O=C(O)c1cccc(C#Cc2cccc(-c3cnco3)c2)c1-c1ccc2cc[nH]c2c1 [Entry 107]	5.00 to 6.00
O=C(O)c1cccc(C#Cc2ccc(OC3CC[S+]([O-])CC3)cc2)c1-c1ccc2cc[nH]c2c1 (stereo not shown) [Entry 29]	4.00 to 5.00
O=C(O)c1cccc(C#Cc2ccc(CN3CCN(S(=O)(=O)C4CC4)CC3)cc2)c1-c1ccc2cc[nH]c2c1 [Entry 190]	4.00 to 5.00
O=C(O)c1cccc(C#Cc2ccc3[nH]c(CN4CCS(=O)(=O)CC4)nc(=O)c3c2)c1-c1ccc2cc[nH]c2c1 [Entry 134]	5.00 to 6.00
CCOC(=O)N1CCN(Cc2cccc(C#Cc3cccc(C(=O)O)c3-c3ccc4cc[nH]c4c3)c2)CC1 [Entry 104]	4.00 to 5.00
O=C(O)c1cccc(C#Cc2ccc(COc3cccc(C(F)(F)F)c3)cc2)c1-c1ccc2cc[nH]c2c1 [Entry 84]	5.00 to 6.00
CC(C)S(=O)(=O)N1CCC(Cc2ccc(C#Cc3cccc(C(=O)O)c3-c3ccc4cc[nH]c4c3)cc2)CC1 [Entry 54]	5.00 to 6.00

Structure (SMILES)	pIC50
CS(=O)(=O)N1CCC(CN2CCc3cc(C#Cc4cccc(C(=O)O)c4-c4ccc5cc[nH]c5c4)ccc3C2)CC1 [Entry 59]	4.00 to 5.00
O=C(O)c1cccc(C#Cc2cccc(-c3nn[nH]n3)c2)c1-c1ccc2cc[nH]c2c1 [Entry 42]	> 6.00
O=C(O)c1cccc(C#Cc2ccc3ccn(CC4CCS(=O)(=O)CC4)c3c2F)c1-c1ccc2cc[nH]c2c1 [Entry 37]	5.00 to 6.00
O=C(O)c1cccc(C#Cc2ccc(CN3CCN(c4nccs4)CC3)cc2)c1-c1ccc2cc[nH]c2c1 [Entry 173]	5.00 to 6.00
CS(=O)(=O)Nc1nc(-c2cccc(C#Cc3cccc(C(=O)O)c3-c3ccc4cc[nH]c4c3)c2)cs1 [Entry 132]	> 6.00
O=C(O)c1cccc(C#Cc2ccc(CN3CCN(c4cnccn4)CC3)cc2)c1-c1ccc2cc[nH]c2c1 [Entry 172]	5.00 to 6.00
O=C(O)c1cccc(C#Cc2ccc(OCCC3CCOCC3)cc2)c1-c1ccc2cc[nH]c2c1 [Entry 143]	5.00 to 6.00
Cn1ccc2ccc(-c3c(C#Cc4ccccc4)cccc3C(=O)O)nc21 [Entry 116]	4.00 to 5.00
N#Cc1cc(C#Cc2cccc(C(=O)O)c2-c2ccc3cc[nH]c3c2)ccc1OC1CCOCC1 [Entry 103]	5.00 to 6.00
COC1CCN(Cc2ccc(C#Cc3cccc(C(=O)O)c3-c3cnc4[nH]ccc4c3)cc2)CC1 [Entry 177]	3.00 to 4.00
O=C(O)c1cccc(C#Cc2ccc(C(=O)N3CCC(F)(F)CC3)c(O)c2)c1-c1ccc2cc[nH]c2c1 [Entry 51]	5.00 to 6.00
CC(=O)N1CCc2cc(C#Cc3cccc(C(=O)O)c3-c3ccc4cc[nH]c4c3)ccc2C1 [Entry 78]	5.00 to 6.00
CS(=O)(=O)Nc1cccc(CN2CCc3cc(C#Cc4cccc(C(=O)O)c4-c4ccc5cc[nH]c5c4)ccc3C2)c1 [Entry 66]	5.00 to 6.00
O=C(O)c1cccc(C#Cc2ccc(CN3CCC(F)(F)CC3)cc2)c1-c1ccc2cc[nH]c2c1 [Entry 158]	5.00 to 6.00
N#Cc1ccccc1OCc1ccc(C#Cc2cccc(C(=O)O)c2-c2ccc3cc[nH]c3c2)cc1 [Entry 94]	5.00 to 6.00
Nc1ccc(C#Cc2cccc(C(=O)O)c2-c2ccc3cc[nH]c3c2)cc1S(N)(=O)=O [Entry 123]	4.00 to 5.00
O=C(O)c1cccc(C#Cc2ccc(-c3ccc(=O)[nH]n3)cc2)c1-c1ccc2cc[nH]c2c1 [Entry 44]	5.00 to 6.00
O=C(O)c1cccc(C#Cc2ccccc2)c1-c1cc2cc[nH]c2cc1F [Entry 114]	4.00 to 5.00
O=C(O)c1cccc(C#Cc2ccc3cc(CN4CCOCC4)[nH]c3c2)c1-c1ccc2cc[nH]c2c1 [Entry 33]	4.00 to 5.00
O=C(O)c1cccc(C#Cc2ccc(C3(CO)COC3)cc2)c1-c1ccc2cc[nH]c2c1 [Entry 105]	5.00 to 6.00
O=C(O)c1cccc(C#Cc2ccc3cc(CN4CCS(=O)(=O)CC4)[nH]c3c2)c1-c1ccc2cc[nH]c2c1 [Entry 34]	5.00 to 6.00
O=C(Nc1ccc(N2CCS(=O)(=O)CC2)cc1)c1cccc(C#Cc2cccc(C(=O)O)c2-c2ccc3cc[nH]c3c2)c1 [Entry 138]	5.00 to 6.00

Structure (SMILES)	pIC50
O=C(O)c1cccc(C#Cc2ccc3c(CN4CCOCC4)c[nH]c3c2)c1-c1ccc2cc[nH]c2c1 [Entry 30]	4.00 to 5.00
Nc1cc(-c2ccc(C#Cc3cccc(C(=O)O)c3-c3ccc4cc[nH]c4c3)cc2)[nH]n1 [Entry 128]	5.00 to 6.00
O=C(O)c1cccc(C#Cc2ccc(COC3CCS(=O)(=O)CC3)cc2F)c1-c1ccc2cc[nH]c2c1 [Entry 187]	4.00 to 5.00
COc1cc(C#Cc2cccc(C(=O)O)c2-c2ccc3cc[nH]c3c2)ccc1CN1CCC(N2CCOCC2)CC1 [Entry 47]	3.00 to 4.00
O=C(O)c1cccc(C#Cc2ccc3ccn(CCN4CCOCC4)c3c2)c1-c1ccc2cc[nH]c2c1 [Entry 1]	4.00 to 5.00
CS(=O)(=O)N1CCC(Cc2ccc(C#Cc3cccc(C(=O)O)c3-c3ccc4cc[nH]c4c3)cc2)CC1 [Entry 52]	5.00 to 6.00
O=C(O)c1cccc(C#Cc2ccccc2)c1-c1ccc2cc[nH]c2n1 [Entry 118]	3.00 to 4.00
O=C(O)c1cccc(C#Cc2ccc(CN3CC(O)C3)cc2)c1-c1ccc2cc[nH]c2c1 [Entry 153]	4.00 to 5.00
CS(=O)(=O)N1CCc2cc(C#Cc3cccc(C(=O)O)c3-c3ccc4cc[nH]c4c3)ccc2C1 [Entry 76]	5.00 to 6.00
Nc1cc(-c2cccc(C#Cc3cccc(C(=O)O)c3-c3ccc4cc[nH]c4c3)c2)n[nH]1 [Entry 106]	5.00 to 6.00
CS(=O)(=O)N1CC(N2Cc3ccc(C#Cc4cccc(C(=O)O)c4-c4ccc5cc[nH]c5c4)cc3C2)C1 [Entry 69]	5.00 to 6.00
O=C(O)c1cccc(C#Cc2cc3c(CN4CCOCC4)c[nH]c3cc2F)c1-c1ccc2cc[nH]c2c1 [Entry 40]	4.00 to 5.00
O=C(O)c1cccc(C#Cc2ccc(OC3CCS(=O)(=O)CC3)cc2)c1-c1ccc2[nH]ccc2c1 [Entry 184]	5.00 to 6.00
O=C(O)c1cccc(C#Cc2ccc(CN3CCN(S(=O)(=O)c4ccccc4)CC3)cc2)c1-c1ccc2cc[nH]c2c1 [Entry 168]	5.00 to 6.00
CN(C)C(=O)N1CCN(Cc2ccc(C#Cc3cccc(C(=O)O)c3-c3ccc4cc[nH]c4c3)cc2)CC1 [Entry 171]	4.00 to 5.00
Nc1nc(-c2ccc(C#Cc3cccc(C(=O)O)c3-c3ccc4cc[nH]c4c3)cc2)cs1 [Entry 121]	5.00 to 6.00
O=C(O)c1cccc(C#Cc2ccc(CNC3CCS(=O)(=O)CC3)cc2)c1-c1ccc2cc[nH]c2c1 [Entry 169]	4.00 to 5.00
Nc1nc(-c2cccc(C#Cc3cccc(C(=O)O)c3-c3ccc4cc[nH]c4c3)c2)cs1 [Entry 125]	5.00 to 6.00
COc1cccc(C)c1NC(=O)c1cccc(C#Cc2cccc(C(=O)O)c2-c2ccc3cc[nH]c3c2)c1 [Entry 137]	5.00 to 6.00
CS(=O)(=O)N1CC2CN(Cc3ccc(C#Cc4cccc(C(=O)O)c4-c4ccc5cc[nH]c5c4)cc3)CC2C1 (stereo not shown) [Entry 189]	4.00 to 5.00
